Data as given in ChEMBL document CHEMBL1126496, “4-Aminomethyl chromans: dependence of serotonin and dopamine binding upon aromatic ring substitution” (Bioorg Med Chem Lett, 1993).

Legend:
D(2) dopamine receptor = D(2) dopamine receptor (Rattus norvegicus, UniProt P61169); test: Compound was tested for its binding affinity against Dopamine receptor D2 using [3H]raclopride radioligand
[1] = biological target: T1, 5-hydroxytryptamine receptor 1A (Homo sapiens, UniProt P08908); test: Compound was tested for its binding affinity against 5-hydroxytryptamine 1A receptor using [3H]8-OH-DPAT radioligand
T1 sequence (P08908 whole entry): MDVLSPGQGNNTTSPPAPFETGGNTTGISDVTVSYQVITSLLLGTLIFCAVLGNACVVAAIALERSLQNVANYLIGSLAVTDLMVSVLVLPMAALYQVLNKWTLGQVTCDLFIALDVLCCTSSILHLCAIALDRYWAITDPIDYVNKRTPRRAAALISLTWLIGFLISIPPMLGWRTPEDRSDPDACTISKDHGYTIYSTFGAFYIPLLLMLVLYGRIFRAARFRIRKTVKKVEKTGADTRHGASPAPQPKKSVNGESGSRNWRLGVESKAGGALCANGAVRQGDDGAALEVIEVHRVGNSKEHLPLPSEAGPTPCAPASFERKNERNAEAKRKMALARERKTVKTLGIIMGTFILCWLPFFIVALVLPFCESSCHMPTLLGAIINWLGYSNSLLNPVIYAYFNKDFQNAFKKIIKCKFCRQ

Chain of D(2) dopamine receptor (P61169 whole entry): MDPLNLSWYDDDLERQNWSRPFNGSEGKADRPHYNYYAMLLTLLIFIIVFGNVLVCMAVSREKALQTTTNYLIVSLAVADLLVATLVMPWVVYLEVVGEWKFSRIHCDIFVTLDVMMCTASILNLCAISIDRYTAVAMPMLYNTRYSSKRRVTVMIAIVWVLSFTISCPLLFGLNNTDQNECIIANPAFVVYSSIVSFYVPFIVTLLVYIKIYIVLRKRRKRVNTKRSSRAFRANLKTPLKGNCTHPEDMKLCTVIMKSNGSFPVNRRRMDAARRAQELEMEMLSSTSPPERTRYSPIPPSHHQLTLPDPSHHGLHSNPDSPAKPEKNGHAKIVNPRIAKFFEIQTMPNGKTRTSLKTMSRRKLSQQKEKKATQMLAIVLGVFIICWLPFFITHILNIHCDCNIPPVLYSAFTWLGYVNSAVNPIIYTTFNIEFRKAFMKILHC

SMILES	Ki (D(2) dopamine receptor) [nM]	Ki [1] [nM]
COc1cccc2c1C(CNCCCc1ccccc1)CCO2 (stereo unspecified)	279	> 1000
COc1ccc2c(c1)C(CN1CCC3(CC1)C(=O)NCN3c1ccccc1)CCO2 (stereo unspecified)	164	247
COc1cccc2c1OCCC2CNCCCc1ccccc1 (stereo unspecified)	620	7
COc1ccc2c(c1)OCCC2CN1CCC2(CC1)C(=O)NCN2c1ccccc1 (stereo unspecified)	274	611
COc1ccc2c(c1)C(CNCCCc1ccccc1)CCO2 (stereo unspecified)	> 1000	93
COc1ccc2c(c1)OCCC2CNCCCc1ccccc1 (stereo unspecified)	> 1000	28
COc1cccc2c1C(CN1CCC3(CC1)C(=O)NCN3c1ccccc1)CCO2 (stereo unspecified)	29	12
COc1cccc2c1OCCC2CN1CCC2(CC1)C(=O)NCN2c1ccccc1 (stereo unspecified)	> 1000	> 1000
